Measured values taken from patent US3965109A, “Certain aryl amino pyridines” (priority 1971, dated 1976).

Key:
[1] = test system: Puccinia recondita (wheat); test: Fungicidal test against foliar disease A (foliage spray plus soil drench); format: in vivo; conditions: 10 days; for Amount of disease grading, disease A (Table 4): 100 ppm spray and drench
[2] = test system: Phytophthora infestans (tomato); format: in vivo; conditions: 3 days
[3] = test system: Plasmopara viticola (vine); test: Fungicidal test against foliar disease C (foliage spray plus soil drench); format: in vivo; conditions: 10 days; for Amount of disease grading, disease C (Table 4): 100 ppm spray and drench
Uncinula necator (vine) = test: Fungicidal test against foliar disease D (foliage spray plus soil drench); format: in vivo; conditions: 10 days; for Amount of disease grading, disease D (Table 4): 100 ppm spray and drench
[4] = test system: Piricularia oryzae (rice); format: in vivo; conditions: 7 days; for Amount of disease grading, disease E (Table 4): 100 ppm spray and drench
[5] = test system: Agrobacterium tumifaciens; test: Antibacterial agar test (B1); format: cell-based; conditions: 50 ppm; 5 days
[6] = test system: Corynebacterium michiganense; test: Antibacterial agar test (B2); format: cell-based; conditions: 50 ppm; 5 days
Method: (§1) This Example illustrates the activity of compounds used as the active ingredients of compositions according to the invention against a variety of plant bacterial diseases and fungal post-harvest saprophytic diseases. In a test for such activity, 5 milligrams of the compound to be tested was dissolved or suspended in 10 ml. of acetone and enough of this solution or suspension was added to 18 ml. of nutrient agar (for the bacterial diseases) or 16 ml. of 2% malt agar (for the fungal diseases) to give a final concentration of 50 parts per million of the compound under test. A streptomycin preparation (2 ml. containing 100 units per ml.) was added to the malt agar to prevent bacterial contamination of the fungal tests.
(§2) The agar preparations were dried overnight in Petri dishes and inoculated the following morning with the bacterial or fungal diseases using a multipoint inoculator. The antibacterial activity was assessed after 5 days and the antifungal activity after 6 days. The results of the tests are set out in Table 16 (anti bacterial activity) and Table 17 (antifungal activity). The results are graded as in Example 1 above.

Xanthomonas malvacearum = test: Antibacterial agar test (B3); format: cell-based; conditions: 50 ppm; 5 days
Method: as §1, §2

Erwinia carotovora = test: Antibacterial agar test (B4); format: cell-based; conditions: 50 ppm; 5 days
Xanthomonas oryzae = format: cell-based; conditions: 50 ppm; 5 days
Pseudomonas syringae = test: Antibacterial agar test (B6); format: cell-based; conditions: 50 ppm; 5 days
Streptomyces scabies = test: Antibacterial agar test (B7); format: cell-based; conditions: 50 ppm; 5 days
[7] = test system: Tetranychus telarius (red spider mites, adults); test: Pest toxicity test; format: in vivo; conditions: 0.1% by weight; French bean; 3 days
[8] = test system: Tetranychus telarius (red spider mites, eggs); test: Pest toxicity test; format: in vivo; conditions: 0.1% by weight; French bean; 3 days
Aphis fabae = test: Pest toxicity test; format: in vivo; conditions: 0.1% by weight; broad bean; 2 days
Megoura viceae = test: Pest toxicity test; format: in vivo; conditions: 0.1% by weight; broad bean; 2 days
[9] = test system: Aedes aegypti (mosquito larvae); test: Pest toxicity test; format: in vivo; conditions: 0.01% by weight; water; 1 day
[10] = test system: Aedes aegypti (mosquito adults); test: Pest toxicity test; format: in vivo; conditions: 0.01% by weight; plywood; 1 day
[11] = test system: Musca domestica (houseflies); test: Pest toxicity test, contact test; format: in vivo; conditions: 0.1% by weight; milk/sugar; 2 days; flies sprayed directly
[12] = test system: Pieris brassicae (cabbage white caterpillars); test: Pest toxicity test; format: in vivo; conditions: 0.1% by weight, 2 days
[13] = test system: Plutella maculipennis (diamond back moth larvae); test: Pest toxicity test; format: in vivo; conditions: in vivo
[14] = test system: Phaedon cochleariae (mustard beetles); test: Pest toxicity test; format: in vivo; conditions: in vivo
Lettuce = test: Herbicidal test, pre- and post-emergence; format: in vivo; conditions: 10 kg/ha; scale 0 to 3 (complete kill)
Tomato = test: Herbicidal test, pre- and post-emergence; format: in vivo; conditions: 10 kg/ha; scale 0 to 3 (complete kill)
Wheat = test: Herbicidal test, pre- and post-emergence; format: in vivo; conditions: 10 kg/ha; scale 0 to 3 (complete kill)
Maize = test: Herbicidal test, pre- and post-emergence; format: in vivo; conditions: 10 kg/ha; scale 0 to 3 (complete kill)
[15] = 50 ppm spray + 200 ppm soil drench

| Compound | Antibacterial activity grading B1 [5] | Antibacterial activity grading B2 [6] | Antibacterial activity grading B3 (Xanthomonas malvacearum) | Antibacterial activity grading B4 (Erwinia carotovora) | Antibacterial activity grading B5 (Xanthomonas oryzae) | Antibacterial activity grading B6 (Pseudomonas syringae) | Antibacterial activity grading B7 (Streptomyces scabies) | Amount of disease grading, disease A (Table 4) [1] | Amount of disease grading, disease C (Table 4) [3] | Amount of disease grading, disease D (Table 4) (Uncinula necator (vine)) | Amount of disease grading, disease E (Table 4) [4] | Mortality grading (kill) [7] | Mortality grading (kill) [8] | Mortality grading (kill) (Aphis fabae) | Mortality grading (kill) (Megoura viceae) | Mortality grading (kill) [9] | Mortality grading (kill) [10] | Mortality grading (kill), contact test [11] | Mortality grading (kill) [12] | Mortality grading (kill) [13] | further results |
| --- | --- | --- | --- | --- | --- | --- | --- | --- | --- | --- | --- | --- | --- | --- | --- | --- | --- | --- | --- | --- | --- |
| O=[N+]([O-])c1cc([N+](=O)[O-])c(Nc2c(Cl)c(F)nc(F)c2Cl)cc1F [Compound 6, 3,5-Dichloro-2,6-difluoro-4(2,4-dinitro-5-fluoroanilino)pyridine] | 3 (0 to 5) | 3 (0 to 5) | 3 (0 to 5) | 1 (26 to 60) | 2 (6 to 25) | 2 (6 to 25) | 1 (26 to 60) |  |  |  |  |  |  |  |  |  |  |  |  |  | Amount of disease grading, disease A [1, 15]: 0 (61 to 100); Amount of disease grading, disease B [2, 15]: 3 (0 to 5); Amount of disease grading, disease C [3, 15]: 3 (0 to 5); Amount of disease grading, disease D (Uncinula necator (vine); [15]): 2 (6 to 25); Amount of disease grading, disease E [4, 15]: 3 (0 to 5) |
| O=[N+]([O-])c1ccc(Nc2c(Cl)c(F)nc(Cl)c2Cl)c(C(F)(F)F)c1 [Compound 44, 2-Fluoro-(4-nitro-2-trifluoromethylanilino)3,5,6-trichlorpyridine] | 3 (0 to 5) | 3 (0 to 5) | 3 (0 to 5) | 3 (0 to 5) | 3 (0 to 5) | 3 (0 to 5) | 3 (0 to 5) | 2 (6 to 25) | 3 (0 to 5) | 3 (0 to 5) | 0 (61 to 100) | 3 (3 represents over 90% kill) | 3 (3 represents over 90% kill) | 0 (O represents less than 30% kill) | 0 (O represents less than 30% kill) | 3 (3 represents over 90% kill) | 0 (O represents less than 30% kill) | 3 (3 represents over 90% kill) | 3 (3 represents over 90% kill) | 0 (key: O represents less than 30% kill; 1 represents 30 - 49% kill; 2 represents 60 - 90% kill; 3 represents over 90% kill; C indicates a chemosterilant effect.; A indicates an antifeeding effect.) | Mortality grading (kill) [14]: 0 (key: O represents less than 30% kill; 1 represents 30 - 49% kill; 2 represents 60 - 90% kill; 3 represents over 90% kill; C indicates a chemosterilant effect.; A indicates an antifeeding effect.); Damage to plants, post-emergence (Lettuce): 3; Damage to plants, pre-emergence (Lettuce): 2; Damage to plants, post-emergence (Tomato): 3; Damage to plants, pre-emergence (Tomato): 3; Damage to plants, post-emergence (Wheat): 0; Damage to plants, pre-emergence (Wheat): 3; Damage to plants, post-emergence (Maize): 1; Damage to plants, pre-emergence (Maize): 0 |
| O=[N+]([O-])c1cc(Br)c(Nc2c(Cl)c(F)nc(F)c2Cl)c([N+](=O)[O-])c1 [Compound 40, 4(2-Bromo-4,6-dinitroanilino)-3,5-dichloro-2,6-difluoropyridine] | 2 (6 to 25) | 2 (6 to 25) | 3 (0 to 5) | 1 (26 to 60) | 2 (6 to 25) | 1 (26 to 60) | 2 (6 to 25) | 0 (61 to 100) | 3 (0 to 5) | 3 (0 to 5) | 1 (26 to 60) | 3 (3 represents over 90% kill) | 3 (3 represents over 90% kill) | 3 (3 represents over 90% kill) | 3 (3 represents over 90% kill) | 3 (3 represents over 90% kill) | 0 (O represents less than 30% kill) | 3 (3 represents over 90% kill) | 0 (O represents less than 30% kill) | 0 (key: O represents less than 30% kill; 1 represents 30 - 49% kill; 2 represents 60 - 90% kill; 3 represents over 90% kill; C indicates a chemosterilant effect.; A indicates an antifeeding effect.) | Mortality grading (kill) [14]: 2 (key: O represents less than 30% kill; 1 represents 30 - 49% kill; 2 represents 60 - 90% kill; 3 represents over 90% kill; C indicates a chemosterilant effect.; A indicates an antifeeding effect.); Damage to plants, post-emergence (Lettuce): 3; Damage to plants, pre-emergence (Lettuce): 3; Damage to plants, post-emergence (Tomato): 1; Damage to plants, pre-emergence (Tomato): 3; Damage to plants, post-emergence (Wheat): 0; Damage to plants, pre-emergence (Wheat): 1; Damage to plants, post-emergence (Maize): 0; Damage to plants, pre-emergence (Maize): 1 |
| O=[N+]([O-])c1cc([N+](=O)[O-])c(Nc2c(Cl)c(Cl)nc(Cl)c2Cl)cc1F [Compound 35, 4(5-Fluoro-2,4-dinitroanilino)tetrachloropyridine] | 0 (61 to 100) | 0 (61 to 100) | 0 (61 to 100) | 0 (61 to 100) | 1 (26 to 60) | 2 (6 to 25) | 2 (6 to 25) | 2 (6 to 25) | 3 (0 to 5) | 0 (61 to 100) | 2 (6 to 25) |  |  |  |  |  |  |  |  |  | Amount of disease grading, disease B (Table 4) ([2]; 100 ppm spray and drench): 3 (0 to 5) |
